Where two headings read alike, the source gives them in different places.
Key:
[1] = test system: Human colon tumor cells (Colo205); assay: Cell growth inhibition assay (CellTiter-Glo), Colo205; assay type: cell-based
Outline: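 Colo205 (and SK-MEL-28) cells in RPMI with 10% FBS were exposed to 10-point 1:3 serial dilutions of compound at 0.2% final DMSO for 3 days at 37 °C. Total ATP, a surrogate for cell number, was read by CellTiter-Glo luminescence, with % growth inhibition relative to DMSO-treated wells.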

[2] = test system: Human melanoma cancer cells (SK-MEL-28); assay: Cell growth inhibition assay (CellTiter-Glo), SK-MEL-28; assay type: cell-based
[3] = target: T1, BRAFV600E full-length (amino acids 2-766) (Homo sapiens, UniProt P15056, V600E); assay: B-Raf Accelerated MEK ATPase assay (BRAMA); assay type: biochemical; conditions: categorized
T1 construct: His6-tagged BRAFV600E full-length (amino acids 2-766); His6; made in house; host or cells: baculovirus expression system (insect cells)
T1 sequence (P15056 2-766 V600E): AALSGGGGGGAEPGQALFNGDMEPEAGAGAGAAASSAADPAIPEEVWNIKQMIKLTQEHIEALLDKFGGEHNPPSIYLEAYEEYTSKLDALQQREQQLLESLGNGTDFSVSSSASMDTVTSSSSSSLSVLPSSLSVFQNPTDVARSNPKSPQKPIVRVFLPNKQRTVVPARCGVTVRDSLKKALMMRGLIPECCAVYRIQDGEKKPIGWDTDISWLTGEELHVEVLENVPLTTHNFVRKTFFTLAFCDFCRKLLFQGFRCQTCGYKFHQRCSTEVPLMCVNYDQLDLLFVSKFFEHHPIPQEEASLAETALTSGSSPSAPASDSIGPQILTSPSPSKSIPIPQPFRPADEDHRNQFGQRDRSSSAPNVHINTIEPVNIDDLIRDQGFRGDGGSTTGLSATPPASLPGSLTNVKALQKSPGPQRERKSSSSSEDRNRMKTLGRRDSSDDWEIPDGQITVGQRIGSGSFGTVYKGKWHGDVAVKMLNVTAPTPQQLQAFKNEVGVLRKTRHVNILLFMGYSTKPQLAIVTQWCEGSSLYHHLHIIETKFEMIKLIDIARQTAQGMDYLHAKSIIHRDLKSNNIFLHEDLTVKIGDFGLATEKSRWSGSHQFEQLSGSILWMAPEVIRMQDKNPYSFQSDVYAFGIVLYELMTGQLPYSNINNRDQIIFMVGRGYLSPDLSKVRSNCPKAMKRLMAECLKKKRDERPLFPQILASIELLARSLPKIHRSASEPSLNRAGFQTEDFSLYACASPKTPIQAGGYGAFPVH
Outline: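 Coupled-enzyme readout: ADP generated by MEK-mediated ATP hydrolysis, uncoupled from ERK phosphorylation, is linked to NADH oxidation through pyruvate kinase and lactate dehydrogenase.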

[4] = COLO 205, 72 h, Table 2a, 3 days incubation, read-out: Activity in Colo205 Tumor Cells
[5] = COLO 205, Table 2b, later runs, average for the one or more runs, categorized, read-out: IC50 for Colo205
[6] = SK-MEL-28, 72 h, Table 3a, 3 days incubation, read-out: Activity in SK-MEL-28 Tumor Cells
[7] = SK-MEL-28, Table 3b, later runs, average for the one or more runs, categorized, read-out: IC50 for SK-MEL-28
[8] = B-Raf Activity, Table 1a, highest pIC50 for the one or more runs
[9] = Table 1b, later runs, average pIC50 for the one or more runs, read-out: B-Raf pIC50 (converted)
[10] = B-Raf pIC50, Table 1b, later runs, average pIC50 for the one or more runs

CC(C)CNc1nccc(-c2sc(C(C)(C)C)nc2-c2ccc(F)c(NS(=O)(=O)c3c(F)cccc3F)c2)n1 [Example 46, N-[5-(2-(1,1-Dimethylethyl)-5-{2-[(2-methylpropyl)amino]-4-pyrimidinyl}-1,3-thiazol-4-yl)-2-fluorophenyl]-2,6-difluorobenzenesulfonamide]
IC50 [1, 4]: 100 to 1000 nM | IC50 [1, 5]: 100 to 1000 nM | IC50 [2, 6]: 100 to 1000 nM | IC50 [2, 7]: 100 to 1000 nM | IC50 [3, 8]: < 100 nM | IC50 [3, 9]: 3.16 to 31.6 nM

CC(C)c1nc(-c2cccc(NS(=O)(=O)c3cc(F)ccc3F)c2F)c(-c2ccnc(NCCNC(=O)OC(C)(C)C)n2)s1 [Example 189]
IC50 [1, 4]: < 100 nM | IC50 [1, 5]: < 100 nM | IC50 [2, 6]: < 100 nM | IC50 [2, 7]: < 100 nM | IC50 [3, 8]: < 100 nM | IC50 [3, 10]: ≤ 3.16 nM

CC(C)CNc1nccc(-c2sc(C3CCOCC3)nc2-c2ccc(F)c(NS(=O)(=O)c3cc(F)ccc3F)c2)n1 [Example 69, 2,5-Difluoro-N-{2-fluoro-5-[5-{2-[(2-methylpropyl)amino]-4-pyrimidinyl}-2-(tetrahydro-2H-pyran-4-yl)-1,3-thiazol-4-yl]phenyl}benzenesulfonamide]
IC50 [1, 4]: 100 to 1000 nM | IC50 [1, 5]: 100 to 1000 nM | IC50 [2, 6]: 100 to 1000 nM | IC50 [2, 7]: 100 to 1000 nM | IC50 [3, 8]: < 100 nM | IC50 [3, 10]: ≤ 3.16 nM

CC(C)(CO)c1nc(-c2cccc(NS(=O)(=O)c3c(F)cccc3F)c2F)c(-c2ccnc(N)n2)s1 [Example 295, N-{3-[5-(2-amino-4-pyrimidinyl)-2-(2-hydroxy-1,1-dimethylethyl)-1,3-thiazol-4-yl]-2-fluorophenyl}-2,6-difluorobenzenesulfonamide]
IC50 [1, 5]: < 100 nM | IC50 [2, 7]: < 100 nM | IC50 [3, 10]: ≤ 3.16 nM

O=S(=O)(Nc1cccc(-c2nc(N3CCOCC3)sc2-c2ccncn2)c1Cl)c1c(F)cccc1F [Example 27, N-{2-Chloro-3-[2-(4-morpholinyl)-5-(4-pyrimidinyl)-1,3-thiazol-4-yl]phenyl}-2,6-difluorobenzenesulfonamide]
IC50 [1, 4]: 100 to 1000 nM | IC50 [1, 5]: 100 to 1000 nM | IC50 [2, 6]: 100 to 1000 nM | IC50 [2, 7]: 100 to 1000 nM | IC50 [3, 8]: < 100 nM | IC50 [3, 9]: 3.16 to 31.6 nM

Cc1ccc(F)cc1S(=O)(=O)Nc1cccc(-c2nc(C(C)(C)C)sc2-c2ccnc(N)n2)c1F [Example 53, N-{3-[5-(2-Amino-4-pyrimidinyl)-2-(1,1-dimethylethyl)-1,3-thiazol-4-yl]-2-fluorophenyl}-5-fluoro-2-methylbenzenesulfonamide]
IC50 [1, 4]: < 100 nM | IC50 [1, 5]: < 100 nM | IC50 [2, 6]: < 100 nM | IC50 [2, 7]: < 100 nM | IC50 [3, 8]: < 100 nM | IC50 [3, 9]: 3.16 to 31.6 nM

Nc1nccc(-c2sc(C3CCOCC3)nc2-c2ccc(F)c(NS(=O)(=O)c3cc(F)ccc3F)c2)n1 [Example 68, N-{5-[5-(2-Amino-4-pyrimidinyl)-2-(tetrahydro-2H-pyran-4-yl)-1,3-thiazol-4-yl]-2-fluorophenyl}-2,5-difluorobenzenesulfonamide]
IC50 [1, 4]: > 1000 nM | IC50 [1, 5]: 1000 to 10000 nM | IC50 [2, 6]: > 1000 nM | IC50 [2, 7]: 1000 to 10000 nM | IC50 [3, 8]: 100 to 1000 nM | IC50 [3, 10]: 31.6 to 1000 nM

CS(=O)(=O)CCNc1nccc(-c2sc(N3CCCC3)nc2-c2cccc(NS(=O)(=O)c3c(F)cccc3F)c2)n1 [Example 32, 2,6-Difluoro-N-{3-[5-(2-{[2-(methylsulfonyl)ethyl]amino}-4-pyrimidinyl)-2-(1-pyrrolidinyl)-1,3-thiazol-4-yl]phenyl}benzenesulfonamide]
IC50 [1, 4]: < 100 nM | IC50 [1, 5]: < 100 nM | IC50 [2, 6]: < 100 nM | IC50 [2, 7]: < 100 nM | IC50 [3, 8]: < 100 nM | IC50 [3, 10]: ≤ 3.16 nM

CC(C)(C)c1nc(-c2cccc(NS(=O)(=O)c3cc(F)ccc3F)c2F)c(-c2ccnc(CCN3CCOCC3)n2)s1 [Example 215]
IC50 [1, 4]: < 100 nM | IC50 [1, 5]: < 100 nM | IC50 [2, 6]: < 100 nM | IC50 [2, 7]: < 100 nM | IC50 [3, 8]: < 100 nM | IC50 [3, 9]: 3.16 to 31.6 nM

CC(C)c1nc(-c2ccc(F)c(NS(=O)(=O)c3cc(F)ccc3F)c2)c(-c2ccnc(NCC3CCNCC3)n2)s1 [Example 128]
IC50 [1, 4]: > 1000 nM | IC50 [1, 5]: 1000 to 10000 nM | IC50 [2, 6]: > 1000 nM | IC50 [3, 8]: < 100 nM | IC50 [3, 9]: 3.16 to 31.6 nM

CC(=O)NCCNc1nccc(-c2sc(C(C)C)nc2-c2ccc(F)c(NS(=O)(=O)c3cc(F)ccc3F)c2)n1 [Example 186]
IC50 [1, 4]: 100 to 1000 nM | IC50 [1, 5]: 100 to 1000 nM | IC50 [2, 6]: 100 to 1000 nM | IC50 [2, 7]: 100 to 1000 nM | IC50 [3, 8]: < 100 nM | IC50 [3, 9]: 3.16 to 31.6 nM

CC(C)CNc1nccc(-c2sc(N3CCOCC3)nc2-c2cccc(NS(=O)(=O)c3ccco3)c2F)n1 [Example 43, N-{2-fluoro-3-[5-{2-[(2-methylpropyl)amino]-4-pyrimidinyl}-2-(4-morpholinyl)-1,3-thiazol-4-yl]phenyl}-2-furansulfonamide]
IC50 [1, 4]: 100 to 1000 nM | IC50 [1, 5]: 100 to 1000 nM | IC50 [2, 6]: 100 to 1000 nM | IC50 [2, 7]: 100 to 1000 nM | IC50 [3, 8]: < 100 nM | IC50 [3, 10]: ≤ 3.16 nM

CC(C)c1nc(-c2ccc(F)c(NS(=O)(=O)c3c(F)cccc3F)c2)c(-c2ccnc(NCCCN3CCCC3=O)n2)s1 [Example 95, 2,6-Difluoro-N-{2-fluoro-5-[2-(1-methylethyl)-5-(2-{[3-(2-oxo-1-pyrrolidinyl)propyl]amino}-4-pyrimidinyl)-1,3-thiazol-4-yl]phenyl}benzenesulfonamide]
IC50 [1, 4]: 100 to 1000 nM | IC50 [1, 5]: 100 to 1000 nM | IC50 [2, 6]: 100 to 1000 nM | IC50 [2, 7]: 100 to 1000 nM | IC50 [3, 8]: < 100 nM | IC50 [3, 10]: 31.6 to 1000 nM

Nc1nccc(-c2sc(C3CCOCC3)nc2-c2cccc(NS(=O)(=O)c3cc(F)ccc3F)c2F)n1 [Example 245, N-{3-[5-(2-amino-4-pyrimidinyl)-2-(tetrahydro-2H-pyran-4-yl)-1,3-thiazol-4-yl]-2-fluorophenyl}-2,5-difluorobenzenesulfonamide]
IC50 [1, 5]: < 100 nM | IC50 [2, 7]: < 100 nM | IC50 [3, 10]: ≤ 3.16 nM

CS(=O)(=O)CCNc1nccc(-c2sc(N3CCOCC3)nc2-c2cccc(NS(=O)(=O)c3c(F)cccc3F)c2F)n1 [Example 14, 2,6-Difluoro-N-{2-fluoro-3-[5-(2-{[2-(methylsulfonyl)ethyl]amino}-4-pyrimidinyl)-2-(4-morpholinyl)-1,3-thiazol-4-yl]phenyl}benzenesulfonamide]
IC50 [1, 4]: < 100 nM | IC50 [1, 5]: < 100 nM | IC50 [2, 6]: < 100 nM | IC50 [2, 7]: < 100 nM | IC50 [3, 8]: < 100 nM | IC50 [3, 10]: ≤ 3.16 nM

CC(C)CNc1nccc(-c2sc(N3CCOCC3)nc2-c2cccc(NS(=O)(=O)c3c(F)cccc3F)c2Cl)n1 [Example 20, N-{2-Chloro-3-[5-{2-[(2-methylpropyl)amino]-4-pyrimidinyl}-2-(4-morpholinyl)-1,3-thiazol-4-yl]phenyl}-2,6-difluorobenzenesulfonamide]
IC50 [1, 4]: < 100 nM | IC50 [1, 5]: < 100 nM | IC50 [2, 6]: < 100 nM | IC50 [2, 7]: < 100 nM | IC50 [3, 8]: < 100 nM | IC50 [3, 10]: ≤ 3.16 nM

Nc1nccc(-c2sc(N3CCOCC3)nc2-c2c(F)ccc(NS(=O)(=O)c3c(F)cccc3F)c2F)n1 [Example 106, N-{3-[5-(2-Amino-4-pyrimidinyl)-2-(4-morpholinyl)-1,3-thiazol-4-yl]-2,4-difluorophenyl}-2,6-difluorobenzenesulfonamide]
IC50 [1, 4]: 100 to 1000 nM | IC50 [1, 5]: 100 to 1000 nM | IC50 [2, 6]: 100 to 1000 nM | IC50 [2, 7]: 100 to 1000 nM | IC50 [3, 8]: < 100 nM | IC50 [3, 9]: 3.16 to 31.6 nM

Nc1nccc(-c2sc(C3CCOCC3)nc2-c2cccc(NS(=O)(=O)c3ccoc3)c2F)n1 [Example 281, N-{3-[5-(2-amino-4-pyrimidinyl)-2-(tetrahydro-2H-pyran-4-yl)-1,3-thiazol-4-yl]-2-fluorophenyl}-3-furansulfonamide]
IC50 [1, 5]: < 100 nM | IC50 [2, 7]: < 100 nM | IC50 [3, 10]: ≤ 3.16 nM

CS(=O)(=O)CCCNc1nccc(-c2sc(N3CCOCC3)nc2-c2cccc(NS(=O)(=O)c3c(F)cccc3F)c2F)n1 [Example 15, 2,6-Difluoro-N-{2-fluoro-3-[5-(2-{[3-(methylsulfonyl)propyl]amino}-4-pyrimidinyl)-2-(4-morpholinyl)-1,3-thiazol-4-yl]phenyl}benzenesulfonamide]
IC50 [1, 4]: < 100 nM | IC50 [1, 5]: < 100 nM | IC50 [2, 6]: < 100 nM | IC50 [2, 7]: < 100 nM | IC50 [3, 8]: < 100 nM | IC50 [3, 10]: ≤ 3.16 nM

CS(=O)(=O)CCNc1nccc(-c2sc(N3CCOCC3)nc2-c2ccc(F)c(NS(=O)(=O)c3c(F)cccc3F)c2)n1 [Example 202]
IC50 [1, 4]: > 1000 nM | IC50 [1, 5]: 1000 to 10000 nM | IC50 [2, 6]: 100 to 1000 nM | IC50 [2, 7]: 100 to 1000 nM | IC50 [3, 8]: < 100 nM | IC50 [3, 10]: 31.6 to 1000 nM

O=S(=O)(Nc1cccc(-c2nc(N3CCOCC3)sc2-c2ccnc(NCCO)n2)c1F)c1cc(F)ccc1F [Example 208]
IC50 [1, 4]: < 100 nM | IC50 [1, 5]: < 100 nM | IC50 [2, 6]: < 100 nM | IC50 [2, 7]: < 100 nM | IC50 [3, 8]: < 100 nM | IC50 [3, 10]: ≤ 3.16 nM

CC(C)c1nc(-c2ccc(F)c(NS(=O)(=O)C3CC3)c2)c(-c2ccnc(NCCS(C)(=O)=O)n2)s1 [Example 55, N-{2-fluoro-5-[2-(1-methylethyl)-5-(2-{[2-(methylsulfonyl)ethyl]amino}-4-pyrimidinyl)-1,3-thiazol-4-yl]phenyl}cyclopropanesulfonamide]
IC50 [1, 4]: 100 to 1000 nM | IC50 [1, 5]: 100 to 1000 nM | IC50 [2, 6]: > 1000 nM | IC50 [2, 7]: 1000 to 10000 nM | IC50 [3, 8]: 100 to 1000 nM | IC50 [3, 10]: 31.6 to 1000 nM
